Reference: patent US12421254B2, “KRAS modulators and uses thereof” (Quanta Therapeutics, Inc., priority 2023, dated 2025)
Like-named read-outs stand apart in the source and are kept apart here.

How the values were obtained:
[1] = target: GST-tagged KRAS-G12D (2-169) (Homo sapiens, UniProt P01116, G12D); experiment: Nucleotide exchange assay (NEA), SOS-mediated, HTRF, KRAS G12D; assay type: biochemical; conditions: IC50 extracted at 30 min, 20 nM SOScat
Procedure, shortened: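 SOS1cat-driven loading of fluorescent GTP-DY-647P1 (150 nM) onto GST-KRAS-G12D (2-169, 0.25 nM) read by time-resolved FRET; SOScat 20 nM, compound preincubated with KRAS 1 h at RT. Signal blanked to no-SOS reactions, normalized to DMSO; IC50 fitted from the 30-min read.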

[2] = target: GST-tagged KRAS-G12V (2-169) (Homo sapiens, UniProt P01116, G12V); experiment: Nucleotide exchange assay (NEA), SOS-mediated, HTRF, KRAS G12V; assay type: biochemical; conditions: Table 4; IC50 extracted at 90 min; 80 nM SOS
Sequence of GST-tagged KRAS-G12V (2-169) (P01116 2-169 isoform P01116-2 G12V): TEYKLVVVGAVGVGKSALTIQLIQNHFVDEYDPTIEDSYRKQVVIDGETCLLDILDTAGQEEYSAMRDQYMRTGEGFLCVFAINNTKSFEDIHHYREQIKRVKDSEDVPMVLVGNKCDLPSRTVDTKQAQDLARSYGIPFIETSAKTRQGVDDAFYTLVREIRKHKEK
Procedure, shortened: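 Exchange onto fluorescent GTP-DY-647P1 (150 nM final) catalysed by 80 nM SOS1cat was followed by Tb-anti-GST HTRF at RT for up to 90 min, after 1 h compound pre-incubation with 0.25 nM GST-tagged KRAS-G12V (2-169), pH 7.3. DMSO = 0%, no-SOS blank = 100%; 4-parameter IC50 taken at 90 min.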

[3] = Table 4, read-out: NEA G12D IC50

Sequence of GST-tagged KRAS-G12D (2-169) (P01116 2-169 isoform P01116-2 G12D): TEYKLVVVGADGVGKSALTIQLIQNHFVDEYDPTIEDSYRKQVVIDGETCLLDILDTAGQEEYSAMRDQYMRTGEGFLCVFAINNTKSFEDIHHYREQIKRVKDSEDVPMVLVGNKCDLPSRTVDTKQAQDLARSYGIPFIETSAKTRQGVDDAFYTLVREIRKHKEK

SMILES | IC50 [1, 3] | IC50 [2] | IC50 ([1]; Table 2, read-out: NEA-G12D (uM) IC50)
CC(c1nccnc1O)N(C)c1nc(OC[C@@]23CCCN2C[C@H](F)C3)nc(N2CC3(CCc4sc(N)c(C#N)c43)C2)n1 (stereo partly drawn) [Compound 150, 2-amino-1′-[4-[[(2R,8S)-2-fluoro-1,2,3,5,6,7-hexahydropyrrolizin-8-yl]methoxy]-6-[1-(3-hydroxypyrazin-2-yl)ethyl-methyl-amino]-1,3,5-triazin-2-yl]spiro[5,6-dihydrocyclopenta[b]thiophene-4,3′-azetidine]-3-carbonitrile] | 1 to 20 µM | 0.1 to 1 µM | –
CC(c1cccnc1N)N(C)c1nc(OC[C@@]23CCCN2C[C@H](F)C3)nc(N2CC3(CCc4sc(N)c(C#N)c43)C2)n1 (stereo partly drawn) [Compound 83, 2-amino-1′-[4-[1-(2-amino-3-pyridyl)ethyl-methyl-amino]-6-[[(2R,8S)-2-fluoro-1,2,3,5,6,7-hexahydropyrrolizin-8-yl]methoxy]-1,3,5-triazin-2-yl]spiro[5,6-dihydrocyclopenta[b]thiophene-4,3′-azetidine]-3-carbonitrile] | < 0.01 µM | < 0.01 µM | –
N#Cc1c(N)sc2c1C1(CC2)CN(c2nc(OCC3(O)CC3)nc(OC[C@@]34CCCN3C[C@H](F)C4)n2)C1 [Compound 76, 2-amino-1′-[4-[[(2R,8S)-2-fluoro-1,2,3,5,6,7-hexahydropyrrolizin-8-yl]methoxy]-6-[(1-hydroxycyclopropyl)methoxy]-1,3,5-triazin-2-yl]spiro[5,6-dihydrocyclopenta[b]thiophene-4,3′-azetidine]-3-carbonitrile] | 1 to 20 µM | 0.1 to 1 µM | –
C[C@@H]1[C@H](C#N)CCCN1c1nc(OC[C@@]23CCCN2C[C@H](F)C3)nc(N2CC3(CCc4sc(N)c(C#N)c43)C2)n1 (racemic) [Compound 29, 2-amino-1′-[4-[rac-(2R,3R)-3-cyano-2-methyl-1-piperidyl]-6-[[(2R,8S)-2-fluoro-1,2,3,5,6,7-hexahydropyrrolizin-8-yl]methoxy]-1,3,5-triazin-2-yl]spiro[5,6-dihydrocyclopenta[b]thiophene-4,3′-azetidine]-3-carbonitrile] | 0.1 to 1 µM | 0.1 to 1 µM | –
C[C@H](c1cccnc1N)N(C)c1nc(OC[C@@]23CCCN2C[C@H](F)C3)nc(N2CC3(CCc4cnn(C)c43)C2)n1 [Compound 278, N-[(1R)-1-(2-amino-3-pyridyl)ethyl]-4-[[(2R,8S)-2-fluoro-1,2,3,5,6,7-hexahydropyrrolizin-8-yl]methoxy]-N-methyl-6-(1-methylspiro[4,5-dihydrocyclopenta[d]pyrazole-6,3′-azetidine]-1′-yl)-1,3,5-triazin-2-amine] | 1 to 20 µM | 1 to 20 µM | –
C[C@H](c1cccnc1N)N(CC(F)F)c1nc(OCC2(CN(C)C)CC2(F)F)nc(N2CC3(C2)SCc2sc(N)c(C#N)c23)n1 (stereo partly drawn) [Compound 220, 2-amino-1′-[4-[[(1R)-1-(2-amino-3-pyridyl)ethyl]-(2,2-difluoroethyl)amino]-6-[[1-[(dimethylamino)methyl]-2,2-difluoro-cyclopropyl]methoxy]-1,3,5-triazin-2-yl]spiro[6H-thieno[3,4-b]thiophene-4,3′-azetidine]-3-carbonitrile] | < 0.01 µM | < 0.01 µM | –
C[C@@]1(O)CCCN(c2nc(OC[C@@]34CCCN3C[C@H](F)C4)nc(N3CC4(C3)c3c(sc(N)c3C#N)CS4(=O)=O)n2)C1 (racemic) [Compound 113, 2-amino-5,5-dioxo-1′-[4-[[rac-(2R,8S)-2-fluoro-1,2,3,5,6,7-hexahydropyrrolizin-8-yl]methoxy]-6-[rac-(3R)-3-hydroxy-3-methyl-1-piperidyl]-1,3,5-triazin-2-yl]spiro[6H-thieno[3,4-b]thiophene-4,3′-azetidine]-3-carbonitrile] | 0.1 to 1 µM | 0.1 to 1 µM | –
CC1(O)COCCN(c2nc(OCC3(CN4CCOCC4)CC3)nc(N3CC4(C3)SCc3sc(N)c(C#N)c34)n2)C1 (stereo not shown) [Compound 270, 2-amino-1′-[4-(6-hydroxy-6-methyl-1,4-oxazepan-4-yl)-6-[[1-(morpholinomethyl)cyclopropyl]methoxy]-1,3,5-triazin-2-yl]spiro[6H-thieno[3,4-b]thiophene-4,3′-azetidine]-3-carbonitrile] | < 0.01 µM | < 0.01 µM | –
N#Cc1c(N)sc2c1C1(CN(c3nc(OC[C@@]45CCCN4C[C@H](F)C5)nc(Oc4cc[nH]n4)n3)C1)SC2 [Compound 165, 2-amino-1′-[4-[[(2R,8S)-2-fluoro-1,2,3,5,6,7-hexahydropyrrolizin-8-yl]methoxy]-6-(1H-pyrazol-3-yloxy)-1,3,5-triazin-2-yl]spiro[6H-thieno[3,4-b]thiophene-4,3′-azetidine]-3-carbonitrile] | 1 to 20 µM | 0.1 to 1 µM | –
C[C@@]1(O)CCCN(c2nc(OC[C@@]34CCCN3C[C@H](F)C4)nc(N3CCC4(CCc5sc(N)c(C#N)c54)C3)n2)C1 (stereo partly drawn) [Compound 11, 2-amino-1′-[4-[[(2R,8S)-2-fluoro-1,2,3,5,6,7-hexahydropyrrolizin-8-yl]methoxy]-6-[(3R)-3-hydroxy-3-methyl-1-piperidyl]-1,3,5-triazin-2-yl]spiro[5,6-dihydrocyclopenta[b]thiophene-4,3′-pyrrolidine]-3-carbonitrile] | 0.1 to 1 µM | 0.1 to 1 µM | 0.1 to 1 µM
N#Cc1c(N)sc2c1C1(CC2)CN(c2nc(OCC3(CN4CCOCC4)CC3)nc(OC3COCC3O)n2)C1 (racemic) [Compound 77, 2-amino-1′-[4-[rac-(3S,4S)-4-hydroxytetrahydrofuran-3-yl]oxy-6-[[1-(morpholinomethyl)cyclopropyl]methoxy]-1,3,5-triazin-2-yl]spiro[5,6-dihydrocyclopenta[b]thiophene-4,3′-azetidine]-3-carbonitrile; 2,2,2-trifluoroacetic acid] | 1 to 20 µM | 0.1 to 1 µM | –
N#Cc1c(N)sc2c1C1(CN(c3nc(OC[C@@]45CCCN4C[C@H](F)C5)nc(N4CCC5(CC4)COC5=O)n3)C1)SC2 [Compound 283, 2-amino-1′-[4-[[(2R,8S)-2-fluoro-1,2,3,5,6,7-hexahydropyrrolizin-8-yl]methoxy]-6-(3-oxo-2-oxa-7-azaspiro[3.5]nonan-7-yl)-1,3,5-triazin-2-yl]spiro[6H-thieno[3,4-b]thiophene-4,3′-azetidine]-3-carbonitrile] | 0.1 to 1 µM | 0.1 to 1 µM | –
CC(c1nsnc1N)N(C)c1nc(OC[C@@]23CCCN2C[C@H](F)C3)nc(N2CC3(C2)SCc2sc(N)c(C#N)c23)n1 (single isomer, unassigned) [Compound 184B, 2-amino-1′-[4-[[(1*)-1-(4-amino-1,2,5-thiadiazol-3-yl)ethyl]-methyl-amino]-6-[[(2R,8S)-2-fluoro-1,2,3,5,6,7-hexahydropyrrolizin-8-yl]methoxy]-1,3,5-triazin-2-yl]spiro[6H-thieno[2,3-c]thiophene-4,3′-azetidine]-3-carbonitrile] | 0.1 to 1 µM | 0.01 to 0.1 µM | –
CC(O)CN(c1nc(OC[C@@]23CCCN2C[C@H](F)C3)nc(N2CC3(C2)SCc2sc(N)c(C#N)c23)n1)C1(C#N)CC1 (stereo partly drawn) [Compound 261, 2-amino-1′-[4-[(1-cyanocyclopropyl)-(2-hydroxypropyl)amino]-6-[[(2R,8S)-2-fluoro-1,2,3,5,6,7-hexahydropyrrolizin-8-yl]methoxy]-1,3,5-triazin-2-yl]spiro[6H-thieno[3,4-b]thiophene-4,3′-azetidine]-3-carbonitrile] | < 0.01 µM | < 0.01 µM | –
N#Cc1c(N)sc2c1C1(CN(c3nc(OCC4(CN5CCOCC5)CC4)nc(N4CCNC[C@H]4CO)n3)C1)SC2 [Compound 186, (S)-2′-amino-1-(4-(2-(hydroxymethyl)piperazin-1-yl)-6-((1-(morpholinomethyl)cyclopropyl)methoxy)-1,3,5-triazin-2-yl)-6′H-spiro[azetidine-3,4′-thieno[3,4-b]thiophene]-3′-carbonitrile] | < 0.01 µM | 0.01 to 0.1 µM | –
N#Cc1c(N)sc2c1C1(CN(c3nc(OC[C@@]45CCCN4C[C@H](F)C5)nc(N(CC4(O)CC4)C4(C#N)CC4)n3)C1)SC2 [Compound 263, 2-amino-1′-[4-[(1-cyanocyclopropyl)-[(1-hydroxycyclopropyl)methyl]amino]-6-[[(2R,8S)-2-fluoro-1,2,3,5,6,7-hexahydropyrrolizin-8-yl]methoxy]-1,3,5-triazin-2-yl]spiro[6H-thieno[3,4-b]thiophene-4,3′-azetidine]-3-carbonitrile] | 0.01 to 0.1 µM | 0.01 to 0.1 µM | –
CCN(c1nc(OCC2(CN(C)C)CC2(F)F)nc(N2CC3(C2)SCc2sc(N)c(C#N)c23)n1)[C@H](C)c1cccnc1N (stereo partly drawn) [Compound 198, 2-amino-1′-[4-[[(1R)-1-(2-amino-3-pyridyl)ethyl]-ethyl-amino]-6-[[1-[(dimethylamino)methyl]-2,2-difluoro-cyclopropyl]methoxy]-1,3,5-triazin-2-yl]spiro[6H-thieno[3,4-b]thiophene-4,3′-azetidine]-3-carbonitrile] | < 0.01 µM | < 0.01 µM | –
C[C@H](c1cccnc1N)N(C)c1nc(OC[C@@]23CCCN2C[C@H](F)C3)nc(N2CCC3(CCCc4sc(N)c(C#N)c43)C2=O)n1 (single isomer, unassigned) [Compound 175B, (*)-2-amino-1′-(4-(((R)-1-(2-aminopyridin-3-yl)ethyl)(methyl)amino)-6-(((2R,7aS)-2-fluorotetrahydro-1H-pyrrolizin-7a(5H)-yl)methoxy)-1,3,5-triazin-2-yl)-2′-oxo-6,7-dihydro-5H-spiro[benzo[b]thiophene-4,3′-pyrrolidine]-3-carbonitrile] | 0.1 to 1 µM | < 0.01 µM | –
